Entries after “also recorded” stand apart in the source; their conditions may differ.

For this assay, the target named is α-glucosidase from recombinant Saccharomyces cerevisiae (Saccharomyces cerevisiae, UniProt P53341). Nature of the assay: α-glucosidase inhibitory activity assay. Type of assay: biochemical. As to conditions: comparison among the fractions and compounds 1-8 isolated from CCF.
α-glucosidase from recombinant Saccharomyces cerevisiae, sequence (P53341 whole entry): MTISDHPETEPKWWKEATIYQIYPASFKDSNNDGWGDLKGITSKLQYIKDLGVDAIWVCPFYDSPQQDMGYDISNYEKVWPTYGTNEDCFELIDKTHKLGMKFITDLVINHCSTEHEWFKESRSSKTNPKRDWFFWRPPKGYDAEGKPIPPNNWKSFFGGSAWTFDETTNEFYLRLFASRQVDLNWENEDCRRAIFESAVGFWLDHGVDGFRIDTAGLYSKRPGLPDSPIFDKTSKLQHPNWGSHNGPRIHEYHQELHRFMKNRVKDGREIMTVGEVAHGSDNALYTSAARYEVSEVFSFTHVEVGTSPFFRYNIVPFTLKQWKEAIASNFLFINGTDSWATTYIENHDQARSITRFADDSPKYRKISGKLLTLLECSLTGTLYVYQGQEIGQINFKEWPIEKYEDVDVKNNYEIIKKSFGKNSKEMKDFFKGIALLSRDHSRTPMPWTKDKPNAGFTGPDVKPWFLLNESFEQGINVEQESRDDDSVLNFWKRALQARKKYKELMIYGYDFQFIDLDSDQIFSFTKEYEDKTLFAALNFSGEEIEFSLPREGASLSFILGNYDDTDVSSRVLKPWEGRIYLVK
Turning to `O=c1c(O[C@@H]2O[C@H](CO)[C@H](O)[C@H](O)[C@H]2O)c(-c2ccc(O)c(O)c2)oc2cc(O)cc(O)c12` [Compound 4, hyperin], the “α-glucosidase inhibitory activity (comparison in words)” value (“α-glucosidase inhibitory activity” for short) is reported as “more significant inhibitory activity against α-glucosidase than other mono-hydroxy flavonoids”.

In the case of `O=c1c(O)c(-c2ccc(O)c(O)c2)oc2cc(O)cc(O)c12` [Compound 6, quercetin], the “α-glucosidase inhibitory activity” value is on record as “higher α-glucosidase inhibitory activity than the flavonoid; also recorded: more significant inhibitory activity against α-glucosidase than other mono-hydroxy flavonoids; also recorded: highest α-glucosidase inhibitory activity”.

For the molecule `O=c1c(O)c(-c2ccc(O)cc2)oc2cc(O[C@@H]3O[C@H](CO)[C@@H](O)[C@H](O)[C@H]3O)cc(O)c12` [Compound 8, kaempferol-7-O-β-D-glucoside], the “α-glucosidase inhibitory activity” value is “higher α-glucosidase inhibitory activity than the flavonoid”.

As for `O=c1c(O)c(-c2ccc(O)cc2)oc2cc(O)cc(O)c12` [Compound 3, kaempferol], the “α-glucosidase inhibitory activity” value was “higher α-glucosidase inhibitory activity than the flavonoid”.
